SMILES strings stand for the structures.

The target in the assay is T1, Recombinant human KIF18A (1-467 His-tagged) protein (Homo sapiens, UniProt Q8NI77).
T1 construct: Recombinant human KIF18A (1-467 His-tagged) protein; His; made in house
T1 sequence (Q8NI77 1-467): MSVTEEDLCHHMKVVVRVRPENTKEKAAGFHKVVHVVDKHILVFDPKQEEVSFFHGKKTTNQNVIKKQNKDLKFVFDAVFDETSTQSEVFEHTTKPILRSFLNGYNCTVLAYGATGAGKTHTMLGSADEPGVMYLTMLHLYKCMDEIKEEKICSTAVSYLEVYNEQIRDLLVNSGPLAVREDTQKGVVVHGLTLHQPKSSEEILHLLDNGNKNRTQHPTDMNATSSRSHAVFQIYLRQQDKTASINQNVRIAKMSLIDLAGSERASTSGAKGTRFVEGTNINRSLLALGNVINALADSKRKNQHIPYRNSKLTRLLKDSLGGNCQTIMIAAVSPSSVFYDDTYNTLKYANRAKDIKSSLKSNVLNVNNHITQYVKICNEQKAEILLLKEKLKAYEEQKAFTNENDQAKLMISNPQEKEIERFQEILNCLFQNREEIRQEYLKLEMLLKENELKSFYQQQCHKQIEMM
T1 sequence (P02550 whole entry partner): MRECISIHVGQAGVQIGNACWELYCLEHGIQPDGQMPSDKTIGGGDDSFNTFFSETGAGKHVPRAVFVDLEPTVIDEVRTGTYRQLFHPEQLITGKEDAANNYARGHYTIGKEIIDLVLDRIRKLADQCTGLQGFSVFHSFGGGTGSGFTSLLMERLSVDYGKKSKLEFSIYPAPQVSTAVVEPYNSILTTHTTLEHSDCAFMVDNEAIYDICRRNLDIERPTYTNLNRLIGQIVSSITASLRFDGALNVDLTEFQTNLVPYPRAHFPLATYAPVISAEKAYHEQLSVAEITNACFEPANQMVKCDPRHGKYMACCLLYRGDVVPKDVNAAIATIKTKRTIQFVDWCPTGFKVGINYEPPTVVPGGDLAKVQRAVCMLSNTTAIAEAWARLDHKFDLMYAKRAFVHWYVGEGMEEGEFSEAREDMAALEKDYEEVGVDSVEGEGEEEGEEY
T1 sequence (P02554 whole entry partner): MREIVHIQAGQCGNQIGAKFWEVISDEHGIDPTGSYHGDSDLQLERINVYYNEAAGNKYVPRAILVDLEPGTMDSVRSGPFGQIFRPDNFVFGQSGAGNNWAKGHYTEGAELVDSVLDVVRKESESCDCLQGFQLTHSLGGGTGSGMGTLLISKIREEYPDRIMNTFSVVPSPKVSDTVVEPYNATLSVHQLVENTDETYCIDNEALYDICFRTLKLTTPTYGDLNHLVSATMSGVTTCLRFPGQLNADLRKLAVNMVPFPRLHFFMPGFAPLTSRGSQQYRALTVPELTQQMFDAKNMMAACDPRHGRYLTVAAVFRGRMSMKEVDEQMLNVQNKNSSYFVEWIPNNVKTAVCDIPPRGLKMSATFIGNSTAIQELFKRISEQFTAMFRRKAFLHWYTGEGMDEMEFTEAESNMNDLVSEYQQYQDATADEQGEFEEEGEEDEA
Description: KIF18A Enzyme Assay: microtubule-stimulated ATPase activity (ADP-Glo). It counts as biochemical. The conditions noted are these: 30 nM KIF18A, 75 μM ATP. From the text:
KIF18A Enzyme Assay: Microtubule-stimulated ATPase activity assay is used to measure KIF18A enzyme activity after treatment with compound. Compounds were 2-fold serially diluted in DMSO (Sigma Inc) over 22-point concentration range. Recombinant human KIF18A (1-467 His-tagged) protein was expressed using a baculovirus system and purified by affinity chromatography by Amgen Inc. Concentrations of KIF18A protein, microtubules (MT), and ATP in the reaction were optimized for standardized homogenous enzyme assay using ADP-Glorm Kinase/ATPase Assay Kit (Promega Inc). The assay measures ADP formed from the ATPase reaction. […] Read luminescence using EnVision microplate reader with ultra-luminescence module (Perkin Elmer Inc). Concentration-response curve-fitting and IC50 determination was performed using Genedata Screener Software (Standard 15.0.1, Genedata Inc) with a four-parameter logistic regression fit model.
Table A provides data for compounds exemplified in the present application and priority document thereof, as representative compounds of the present invention, as follows: chemical name (as named by either ACD software or ChemDraw (Professional 15.0)) and biological data (IC50 in μM). Ex. # refers to Example No.
(ADP-Glo turns the ADP formed in a reaction into a luminescent signal.)
Take `O=C(Nc1cccc(S(=O)(=O)NC2CCC2)c1)c1cccnc1N1CCC2(CC1)CC2` [Example 101-1, N-(3-(N-cyclobutylsulfamoyl)phenyl)-2-(6-azaspiro[2.5]octan-6-yl)nicotinamide]: the half-maximal inhibitory concentration (IC50) was 323 nM.

For `C[C@@H](O)CNc1ccc(C(=O)Nc2cccc(S(=O)(=O)C3CCCC3)c2)c(N2CCC3(CC2)CC3)n1` [Example 103-11, (R)-N-(3-(cyclopentylsulfonyl)phenyl)-6-((2-hydroxypropyl)amino)-2-(6-azaspiro[2.5]octan-6-yl)nicotinamide], the IC50 turned out to be 76 nM.

Consider `C[C@@H]1CN(c2cc(F)cc(NC(=O)c3ccc(NC(C)(C)CO)nc3N3CCC4(CC3)CC4)c2)CCO1` [Example 105-32, (R)-N-(3-fluoro-5-(2-methylmorpholino)phenyl)-6-((1-hydroxy-2-methylpropan-2-yl)amino)-2-(6-azaspiro[2.5]octan-6-yl)nicotinamide], for which the IC50 turned out to be 208 nM.

On to `CC1(O)CN(c2ccc(C(=O)Nc3cccc(S(=O)(=O)NC(C)(C)C)c3)c(N3CCC4(CC3)CC4)n2)C1` [Example 102-13, N-(3-(N-(tert-butyl)sulfamoyl)phenyl)-6-(3-hydroxy-3-methylazetidin-1-yl)-2-(6-azaspiro[2.5]octan-6-yl)nicotinamide], for which the IC50 stood at 196 nM.

`CC(C)(C)NS(=O)(=O)c1cccc(NC(=O)c2ccc(N3C[C@H]4C[C@@H]3CO4)nc2N2CCC3(CC2)CC3)c1` [Example 102-8, 6-((1R,4R)-2-oxa-5-azabicyclo[2.2.1]heptan-5-yl)-N-(3-(N-(tert-butyl)sulfamoyl)phenyl)-2-(6-azaspiro[2.5]octan-6-yl)nicotinamide]: the IC50 stood at 104 nM.

As to `CC1(NS(=O)(=O)c2cccc(NC(=O)c3cccnc3N3CCC4(CC3)CC4)c2)CC1` [Example 101-7, N-(3-(N-(1-methylcyclopropyl)sulfamoyl)phenyl)-2-(6-azaspiro[2.5]octan-6-yl)nicotinamide], the IC50 was determined as 320 nM.

Regarding `CC(C)(C)NS(=O)(=O)c1cccc(NC(=O)c2ccc(N[C@@H]3CCC[C@H]3O)nc2N2CCC3(CC2)CC3)c1` [Example 102-18, N-(3-(N-(tert-butyl)sulfamoyl)phenyl)-6-(((1R,2R)-2-hydroxycyclopentyl)amino)-2-(6-azaspiro[2.5]octan-6-yl)nicotinamide], the IC50 worked out at 107 nM.

Turning to `CC(C)NS(=O)(=O)c1cccc(NC(=O)c2cccnc2N2CCC3(CC2)CC3)c1` [Example 100-11, N-(3-(N-isopropylsulfamoyl)phenyl)-2-(6-azaspiro[2.5]octan-6-yl)nicotinamide], the concentration for half-maximal inhibition (IC50) was 934 nM.

In the case of `O=C(Nc1cccc(S(=O)(=O)C2CCCC2)c1)c1ccc(NCCCO)nc1N1CCC2(CC1)CC2` [Example 103-2, N-(3-(cyclopentylsulfonyl)phenyl)-6-((3-hydroxypropyl)amino)-2-(6-azaspiro[2.5]octan-6-yl)nicotinamide], the 50% inhibitory concentration (IC50) was determined as 47 nM.

In the case of `Cc1ccc(NC(=O)c2ccc(NC(C)(C)CO)nc2N2CCC3(CC2)CC3)cc1S(=O)(=O)NC(C)(C)C` [Example 105-16, N-(3-(N-(tert-butyl)sulfamoyl)-4-methylphenyl)-6-((1-hydroxy-2-methylpropan-2-yl)amino)-2-(6-azaspiro[2.5]octan-6-yl)nicotinamide], the IC50 came out at 121 nM.

In the case of `CC(C)(C)NS(=O)(=O)c1cccc(NC(=O)c2ccc([C@](C)(O)C(F)(F)F)nc2N2CCC3(CC2)CC3)c1` (single isomer, unassigned) [Example 107-1], the IC50 was determined as 70 nM.

Turning to `O=C(Nc1cccc(S(=O)(=O)C2CCC2)c1)c1cccnc1N1CCC2(CC1)CC2` [Example 100-24, N-(3-(cyclobutylsulfonyl)phenyl)-2-(6-azaspiro[2.5]octan-6-yl)nicotinamide], the IC50 is 923 nM.

Consider `CC(C)(C)NS(=O)(=O)c1cccc(NC(=O)c2ccc(N3CC[C@H](O)C3)nc2N2CCC3(CC2)CC3)c1` [Example 102-4, (S)-N-(3-(N-(tert-butyl)sulfamoyl)phenyl)-6-(3-hydroxypyrrolidin-1-yl)-2-(6-azaspiro[2.5]octan-6-yl)nicotinamide], for which the IC50 was 234 nM.

For `Cc1ccc(NC(=O)c2ccncc2N2CCC3(CC2)CC3)cc1C(=O)N1CCC(F)(F)CC1` [Example 115-4, N-(3-(4,4-difluoropiperidine-1-carbonyl)-4-methylphenyl)-3-(6-azaspiro[2.5]octan-6-yl)isonicotinamide], the concentration for half-maximal inhibition (IC50) worked out at 1540 nM.

Regarding `COc1ccc(NC(=O)c2ccc(NC(C)(C)CO)nc2N2CCC3(CC2)CC3)cc1S(=O)(=O)NC(C)(C)C` [Example 105-20, N-(3-(N-(tert-butyl)sulfamoyl)-4-methoxyphenyl)-6-((1-hydroxy-2-methylpropan-2-yl)amino)-2-(6-azaspiro[2.5]octan-6-yl)nicotinamide], the IC50 stood at 162 nM.

For `CC(C)(O)CNc1ccc(C(=O)Nc2cccc(S(=O)(=O)C3CCCC3)c2)c(N2CCC3(CC2)CC3)n1` [Example 103, N-(3-(Cyclopentylsulfonyl)phenyl)-6-((2-hydroxy-2-methylpropyl)amino)-2-(6-azaspiro[2.5]octan-6-yl)nicotinamide], the IC50 is 58 nM.

Turning to `Cc1ccc(NC(=O)c2ccc(NC(C)(C)CO)nc2N2CCC3(CC2)CC3)cc1-c1ccoc1` [Example 111-1, N-(3-(furan-3-yl)-4-methylphenyl)-6-((1-hydroxy-2-methylpropan-2-yl)amino)-2-(6-azaspiro[2.5]octan-6-yl)nicotinamide], the concentration for half-maximal inhibition (IC50) is 265 nM.

For the compound `CC(C)(C)NS(=O)(=O)c1cccc(NC(=O)c2ccncc2N2CCC3(CC2)CC3)c1` [Example 114, N-(3-(N-(tert-butyl)sulfamoyl)phenyl)-3-(6-azaspiro[2.5]octan-6-yl)isonicotinamide], the IC50 was 114 nM.

Take `Cc1ccc(NC(=O)c2ccc(NC(C)(C)CO)nc2N2CCC3(CC2)CC3)cc1N1CCCC1=O` [Example 105-29, 6-((1-hydroxy-2-methylpropan-2-yl)amino)-N-(4-methyl-3-(2-oxopyrrolidin-1-yl)phenyl)-2-(6-azaspiro[2.5]octan-6-yl)nicotinamide]: the IC50 came to 279 nM.

With `CC(C)(C)NS(=O)(=O)c1cccc(NC(=O)c2ccc([C@@](C)(O)CO)nc2N2CCC3(CC2)CC3)c1` (single isomer, unassigned) [Example 109-2], the IC50 was found to be 65 nM.

On to `Cn1nccc1-c1cccc(NC(=O)c2ccc(NC(C)(C)CO)nc2N2CCC3(CC2)CC3)c1` [Example 111-8, 6-((1-hydroxy-2-methylpropan-2-yl)amino)-N-(3-(1-methyl-1H-pyrazol-5-yl)phenyl)-2-(6-azaspiro[2.5]octan-6-yl)nicotinamide], for which the IC50 was 542 nM.

As for `CC(C)(C)NS(=O)(=O)c1cccc(NC(=O)c2ccc([C@@](C)(O)C(F)(F)F)nc2N2CCC3(CC2)CC3)c1` (single isomer, unassigned) [Example 107-2], the IC50 amounted to 97 nM.

Take `Cc1ccc(NC(=O)c2ccncc2N2CCC3(CC2)CC3)cc1C(=O)N1CCCC(F)(F)C1` [Example 115, N-(3-(3,3-difluoropiperidine-1-carbonyl)-4-methylphenyl)-3-(6-azaspiro[2.5]octan-6-yl)isonicotinamide]: the concentration for half-maximal inhibition (IC50) came to 606 nM.

`CC(C)(O)C(C)(C)Nc1ccc(C(=O)Nc2cccc(S(=O)(=O)C3CCCC3)c2)c(N2CCC3(CC2)CC3)n1` [Example 103-18, N-(3-(cyclopentylsulfonyl)phenyl)-6-((3-hydroxy-2,3-dimethylbutan-2-yl)amino)-2-(6-azaspiro[2.5]octan-6-yl)nicotinamide]: the IC50 came out at 109 nM.

Take `CC1(C)CCN(c2ncccc2C(=O)Nc2cccc(S(=O)(=O)N3CCCCC3)c2)CC1` [Example 100, 2-(4,4-Dimethylpiperidin-1-yl)-N-(3-(piperidin-1-ylsulfonyl)phenyl)nicotinamide]: the half-inhibitory concentration (IC50) is 553 nM.

Turning to `CC(C)(C)NS(=O)(=O)c1cccc(NC(=O)c2ccc(N3CCC3)nc2N2CCC3(CC2)CC3)c1` [Example 102-10, 6-(azetidin-1-yl)-N-(3-(N-(tert-butyl)sulfamoyl)phenyl)-2-(6-azaspiro[2.5]octan-6-yl)nicotinamide], the IC50 amounted to 118 nM.

Regarding `CC(C)(C)NS(=O)(=O)c1cccc(NC(=O)c2ccc(N3CC(O)(C(F)(F)F)C3)nc2N2CCC3(CC2)CC3)c1` [Example 102-14, N-(3-(N-(tert-butyl)sulfamoyl)phenyl)-6-(3-hydroxy-3-(trifluoromethyl)azetidin-1-yl)-2-(6-azaspiro[2.5]octan-6-yl)nicotinamide], the IC50 worked out at 280 nM.

For `CC1(NS(=O)(=O)c2cccc(NC(=O)c3ccc(NC4(CO)CC4)nc3N3CCC4(CC3)CC4)c2)CCC1` [Example 105-12, 6-((1-(hydroxymethyl)cyclopropyl)amino)-N-(3-(N-(1-methylcyclobutyl)sulfamoyl)phenyl)-2-(6-azaspiro[2.5]octan-6-yl)nicotinamide], the IC50 came to 105 nM.

Regarding `O=C(Nc1cccc(S(=O)(=O)C2CCCC2)c1)c1ccc(NC2(CO)COC2)nc1N1CCC2(CC1)CC2` [Example 103-6, N-(3-(cyclopentylsulfonyl)phenyl)-6-((3-(hydroxymethyl)oxetan-3-yl)amino)-2-(6-azaspiro[2.5]octan-6-yl)nicotinamide], the IC50 worked out at 39 nM.

For the compound `CCC1(C)CCN(c2ncccc2C(=O)Nc2cccc(S(=O)(=O)C3CCCC3)c2)CC1` [Example 100-16, N-(3-(cyclopentylsulfonyl)phenyl)-2-(4-ethyl-4-methylpiperidin-1-yl)nicotinamide], the IC50 was found to be 1010 nM.

The term IC50 denotes the concentration that inhibits the measured activity by half.

Source of the values: patent US12540129B2, “KIF18A inhibitors” (AMGEN INC., priority 2019, dated 2026).
